The text below walks through data of publication PMC7582957, “A Fluorescence Polarization-Based High-Throughput Screen to Identify the First Small-Molecule Modulators of the Human Adenylyltransferase HYPE/FICD” (International Journal of Molecular Sciences, 2020).

What all share (format): biochemical
For assay [1], the target named is T1, Δ102 HYPE (HYPE103-456) (Homo sapiens, UniProt Q9BVA6).
T1 construct: gene FICD; aa 103-456, lacks TM domain and N-terminus; His6-SUMO tag cleaved by ULP1; pSMT3, E. coli BL21-DE3-RILP; cobalt and size-exclusion purified
T1 sequence (Q9BVA6 103-456): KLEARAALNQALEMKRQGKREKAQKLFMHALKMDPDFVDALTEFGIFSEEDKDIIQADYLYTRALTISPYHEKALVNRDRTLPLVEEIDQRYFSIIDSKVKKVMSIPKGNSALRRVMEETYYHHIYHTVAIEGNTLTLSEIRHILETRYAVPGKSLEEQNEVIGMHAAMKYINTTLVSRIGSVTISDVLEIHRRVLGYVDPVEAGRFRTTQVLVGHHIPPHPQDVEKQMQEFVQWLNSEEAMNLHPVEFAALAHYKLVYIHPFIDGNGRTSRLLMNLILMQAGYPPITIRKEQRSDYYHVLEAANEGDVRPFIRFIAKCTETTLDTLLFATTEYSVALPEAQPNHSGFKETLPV
The assay is described as follows: fluorescence polarization autoAMPylation with Fl-ATP. The note with it: activator; detergent-less minimal buffer 50 mM HEPES pH 7.5, 1 mM MnCl2, 25 nM Fl-ATP, 0.4 µM enzyme, room temperature; unreliable. The source says: fluorescence polarization autoAMPylation with Fl-ATP on Δ102 HYPE (HYPE103-456) | robust dose-dependencies among all activators, with low micromolar EC50 values
Background: Fluorescence polarisation rises when a labelled molecule tumbles more slowly, as on binding a larger partner.

Assay [2] concerns the target T2, Δ45 HYPE (Homo sapiens, UniProt Q9BVA6).
T2 construct: gene FICD; aa 46-456, TM domain deleted; His6-SUMO tag cleaved by ULP1; pSMT3, E. coli BL21-DE3-RILP; cobalt and size-exclusion purified
T2 sequence (Q9BVA6 46-456): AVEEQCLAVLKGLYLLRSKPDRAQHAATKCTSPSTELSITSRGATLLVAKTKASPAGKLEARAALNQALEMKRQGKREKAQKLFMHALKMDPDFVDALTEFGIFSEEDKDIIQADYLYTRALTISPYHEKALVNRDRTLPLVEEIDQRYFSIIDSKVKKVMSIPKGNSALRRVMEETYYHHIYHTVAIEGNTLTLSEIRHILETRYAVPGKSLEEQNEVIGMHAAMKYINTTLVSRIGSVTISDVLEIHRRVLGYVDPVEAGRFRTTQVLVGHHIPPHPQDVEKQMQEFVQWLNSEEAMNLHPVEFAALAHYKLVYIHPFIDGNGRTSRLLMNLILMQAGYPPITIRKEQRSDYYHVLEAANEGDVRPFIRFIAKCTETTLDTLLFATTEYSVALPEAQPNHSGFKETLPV
The assay is described as follows: in-gel fluorescence autoAMPylation with Fl-ATP. The settings on record: activator; same, with 0.1% Triton X-100.

Assay [3] concerns the target T3, Δ102 HYPE (HYPE103-456) (Homo sapiens, UniProt Q9BVA6, E234G).
T3 construct: gene FICD; aa 103-456, lacks TM domain and N-terminus; His6-SUMO tag cleaved by ULP1; pSMT3, E. coli BL21-DE3-RILP; cobalt and size-exclusion purified
T3 sequence (Q9BVA6 103-456 E234G): T1 sequence (Q9BVA6 103-456) with E132G
The assay can be described thus: fluorescence polarization autoAMPylation with Fl-ATP. An excerpt:
fluorescence polarization autoAMPylation with Fl-ATP on Δ102 HYPE (HYPE103-456) | I1 and I3 were in the mid-micromolar range | we obtained a low micromolar inhibitory potency for I2

Positions count from the first letter of the chain named.

Usually EC50 stands for the midpoint of the concentration-response curve. Higher therefore signals a less potent agent. In turn, `CCCCCCCCCCCCCCCC(O)C(N)CO` (racemic) [A2, DL-erythro-dihydrosphingosine] came in with an EC50 in assay [1] of 15.415 µM.
On the same count and under the same terms, the same measure for `CCCCC(CC)CN1CN(CC(CC)CCCC)CC(C)(N)C1` (stereo not shown) [A3, Hexetidine]: 13.144 µM.
The same measure, in the same setting: the same measure for `CCCCCCCCCCCCCCCC[N+](C)(C)CCN(Cc1ccc(OC)cc1)c1ncccn1` [A5, Thonzonium Bromide]: 10.305 µM.
As to `CC(C)(C)c1ccc(-c2cc(C[C@H]3CNCC[C@H]3CC(=O)N3CCN(c4ccc(F)cc4)CC3)no2)cc1` [A6, NAT14–350426], the “in-gel fluorescence autoAMPylation with Fl-ATP” value in assay [2] was “significant increase in bioactivity of A1 and A4–A6 (Figure 9D)”.
Usually IC50 stands for the point on the concentration scale where inhibition reaches its midpoint. Take `Cc1cc(-c2ccc(N=Nc3ccc4c(S(=O)(=O)O)cc(S(=O)(=O)O)c(N)c4c3O)c(C)c2)ccc1N=Nc1ccc2c(S(=O)(=O)O)cc(S(=O)(=O)O)c(N)c2c1O` [I1, Evan’s Blue]: in assay [3], the IC50 amounted to 30.4 µM. This counts as double-digit micromolar.
The same measure, in the same setting: the figure for `O=C(O)C1=CC(=C(c2ccc(O)c(C(=O)O)c2)c2ccc(O)c(C(=O)O)c2)C=CC1=O` [I2, Aurintricarboxylic Acid] is 0.347 µM.
Same read-out and setting: the figure for `COc1cc(-c2ccc(N=Nc3ccc4c(S(=O)(=O)O)cc(S(=O)(=O)O)c(N)c4c3O)c(OC)c2)ccc1N=Nc1ccc2c(S(=O)(=O)O)cc(S(=O)(=O)O)c(N)c2c1O` [I3, Chicago Sky Blue] is 22.5 µM.
